# Data from patent US11147272B2, “Pyridone compounds and agricultural and horticultural fungicides comprising the same as active ingredients” (MITSUI CHEMICALS AGRO, INC., priority 2017, dated 2021).
# Assays:
# [1] = tested on: Blumeria graminis f. sp. hordei; experiment: Test Example D: Powdery mildew on barley; conditions: for Test D control value class: class of control value
# Alternaia brassicicola = experiment: Test Example C: Alternaria sooty spot on cabbage; type: in vivo
# Excerpt: Seeds of a test plant (cabbage variety: Shikidori) were planted and cultivated until the cotyledons extended.
# <Control Value> Control value=100{1−(n/3)}
# Magnaporthe grisea = experiment: whole plant or invertebrate; type: in vivo; conditions: for Test A control value class: class of control value
# Plasmopara viticola = experiment: Test Example G: Downy mildew on vine; conditions: for Test G control value: 7 to 10 days after inoculation; for Test G control value class: Downy mildew on vine (Neomuscat), 2.5 ml/pot, assessed 7 to 10 days after inoculation
# Puccinia recondita = experiment: Test Example E: Brown rust on wheat; type: in vivo
# Botrytis cinerea = experiment: Test Example B: Gray mold on tomato; conditions: for Test B control value class: class of control value
# [2] = tested on: Colletotrichum orbiculare; experiment: Test Example H: Anthracnose on cucumber; conditions: for Test H control value: 6 to 10 days after inoculation; for Test H control value class: Anthracnose on cucumber (Sagami Hanjiro), 2.5 ml/pot, assessed 6 to 10 days after inoculation
# Phytophthora infestans = experiment: whole plant or invertebrate; type: in vivo; conditions: for Test F control value class: class of control value
# [3] = Powdery mildew on barley, control value class
# [4] = Alternaria sooty spot on cabbage, control value class
# [5] = Blast on rice, control value class
# [6] = Downy mildew on vine, 250 ppm spray
# [7] = Brown rust on wheat, control value class
# [8] = Gray mold on tomato, control value class
# [9] = Anthracnose on cucumber, 250 ppm spray
# [10] = Late blight on tomato, control value class
# [11] = 250 ppm drug solution sprayed on test plant
# [12] = 250 ppm drug solution sprayed (2.5 ml/pot), grape Neomuscat
# [13] = 250 ppm drug solution sprayed (2.5 ml/pot), cucumber Sagami Hanjiro
# [14] = Alternaria sooty spot on cabbage, class of control value
# [15] = Brown rust on wheat, class of control value
smiles,measurement,setting,value
CCCc1cc(Cl)c(=O)n(CC)c1-c1ccc(OC)cc1Cl [compound 320],Test D control value,[1]; [3],H (more than 50% control value)
same,Test C control value,Alternaia brassicicola; [4],H (more than 50% control value)
same,Test A control value,Magnaporthe grisea; [5],H (more than 50% control value)
same,Test G control value,Plasmopara viticola; [6],H (more than 50% control value)
same,Test E control value,Puccinia recondita; [7],H (more than 50% control value)
same,Test B control value,Botrytis cinerea; [8],H (more than 50% control value)
same,Test H control value,[2]; [9],H (more than 50% control value)
same,Test F control value,Phytophthora infestans; [10],H (more than 50% control value)
CCc1cc(Cl)c(=O)n(CC)c1-c1c(F)cc(F)cc1F [compound 386],Test D control value,[1]; [11],H (more than 50% control value)
same,Test C control value,Alternaia brassicicola; [11],H (more than 50% control value)
same,Test A control value,Magnaporthe grisea; [11],H (more than 50% control value)
same,Test G control value,Plasmopara viticola; [12],H (more than 50% control value)
same,Test E control value,Puccinia recondita; [11],H (more than 50% control value)
same,Test B control value,Botrytis cinerea; [11],H (more than 50% control value)
same,Test H control value,[2]; [13],H (more than 50% control value)
same,Test F control value,Phytophthora infestans; [11],L (50% or less control value)
CCn1c(-c2ccc(Br)cc2Cl)c(CC(C)C)cc(Cl)c1=O [compound 236],Test D control value,[1]; [3],H (more than 50% control value)
same,Test C control value,Alternaia brassicicola; [4],H (more than 50% control value)
same,Test A control value,Magnaporthe grisea; [5],H (more than 50% control value)
same,Test G control value,Plasmopara viticola; [6],L (50% or less control value)
same,Test E control value,Puccinia recondita; [7],H (more than 50% control value)
same,Test B control value,Botrytis cinerea; [8],H (more than 50% control value)
same,Test H control value,[2]; [9],L (50% or less control value)
same,Test F control value,Phytophthora infestans; [10],L (50% or less control value)
"CCOc1cc(F)c(-c2c(CN(C)OC)cc(Cl)c(=O)n2CC)c(F)c1 [Compound No. 93, 3-chloro-6-(4-ethoxy-2,6-difluorophenyl)-1-ethyl-5-((methoxy(methyl)amino)methyl)pyridin-2(1H)-one]",pest or weed control at 250 µg/mL,"[1]; Blumeria graminis, in Hordeum vulgare, topical, read-out: Test D control value class",> 50%
same,pest or weed control at 250 µg/mL,"Alternaia brassicicola; Brassica oleracea, topical, Alternaria sooty spot on cabbage, class of control value, read-out: Test C control value class",> 50%
same,pest or weed control at 250 µg/mL,"Magnaporthe grisea; Pyricularia oryzae, in Oryza sativa, read-out: Test A control value class",> 50%
same,pest or weed control at 250 ppm,"Plasmopara viticola; Plasmopara viticola, topical, read-out: Test G control value class",> 50%
same,pest or weed control at 250 µg/mL,"Puccinia recondita; Puccinia recondita, topical, Brown rust on wheat, class of control value, read-out: Test E control value class",> 50%
same,pest or weed control at 250 µg/mL,"Botrytis cinerea; Botrytis cinerea, in Solanum lycopersicum, topical, read-out: Test B control value class",> 50%
same,pest or weed control at 250 ppm,"[2]; Colletotrichum orbiculare, in Cucumis sativus, topical, read-out: Test H control value class",> 50%
same,pest or weed control at 250 µg/mL,"Phytophthora infestans; Phytophthora infestans, in Solanum lycopersicum, topical, read-out: Test F control value class",< 50%
CCOc1cc(F)c(-c2c(C(OC)C(C)C)cc(Cl)c(=O)n2CC)c(F)c1 (centres unmarked) [compound 72],Test D control value class,[1]; Powdery mildew on barley,H (more than 50% control value)
same,Test C control value class,Alternaia brassicicola; [14],H (more than 50% control value)
same,Test A control value class,Magnaporthe grisea; Blast on rice,H (more than 50% control value)
same,Test G control value class,Plasmopara viticola; 250 ppm spray,H (more than 50% control value)
same,Test E control value class,Puccinia recondita; [15],H (more than 50% control value)
same,Test B control value class,Botrytis cinerea; Gray mold on tomato,H (more than 50% control value)
same,Test H control value class,[2]; 250 ppm spray,H (more than 50% control value)
same,Test F control value class,Phytophthora infestans; Late blight on tomato,L (50% or less control value)
CCOc1cc(F)c(-c2c(C(=O)C(C)C)cc(Cl)c(=O)n2CC)c(F)c1 [compound 218],Test D control value,[1]; [3],H (more than 50% control value)
same,Test C control value,Alternaia brassicicola; [4],H (more than 50% control value)
same,Test A control value,Magnaporthe grisea; [5],H (more than 50% control value)
same,Test G control value,Plasmopara viticola; [6],H (more than 50% control value)
same,Test E control value,Puccinia recondita; [7],H (more than 50% control value)
same,Test B control value,Botrytis cinerea; [8],H (more than 50% control value)
same,Test H control value,[2]; [9],H (more than 50% control value)
same,Test F control value,Phytophthora infestans; [10],L (50% or less control value)
C#CC(OC)c1cc(Cl)c(=O)n(CC)c1-c1c(F)cc(F)cc1F (centres unmarked) [compound 285],Test D control value,[1]; [3],H (more than 50% control value)
same,Test C control value,Alternaia brassicicola; [4],H (more than 50% control value)
same,Test A control value,Magnaporthe grisea; [5],H (more than 50% control value)
same,Test G control value,Plasmopara viticola; [6],L (50% or less control value)
same,Test E control value,Puccinia recondita; [7],H (more than 50% control value)
same,Test B control value,Botrytis cinerea; [8],H (more than 50% control value)
same,Test H control value,[2]; [9],H (more than 50% control value)
same,Test F control value,Phytophthora infestans; [10],L (50% or less control value)
CCCc1ccc(=O)n(CCC)c1-c1c(F)cc(OC)cc1F [compound 442],Test D control value,[1]; [11],H (more than 50% control value)
same,Test C control value,Alternaia brassicicola; [11],L (50% or less control value)
same,Test A control value,Magnaporthe grisea; [11],H (more than 50% control value)
same,Test G control value,Plasmopara viticola; [12],H (more than 50% control value)
same,Test E control value,Puccinia recondita; [11],H (more than 50% control value)
same,Test B control value,Botrytis cinerea; [11],L (50% or less control value)
same,Test H control value,[2]; [13],H (more than 50% control value)
same,Test F control value,Phytophthora infestans; [11],L (50% or less control value)
CCn1c(-c2c(F)cc(F)cc2F)c(C(C)(C)C)cc(Cl)c1=O [compound 69],Test D control value class,[1]; Powdery mildew on barley,L (50% or less control value)
same,Test C control value class,Alternaia brassicicola; [14],H (more than 50% control value)
same,Test A control value class,Magnaporthe grisea; Blast on rice,H (more than 50% control value)
same,Test G control value class,Plasmopara viticola; 250 ppm spray,L (50% or less control value)
same,Test E control value class,Puccinia recondita; [15],H (more than 50% control value)
same,Test B control value class,Botrytis cinerea; Gray mold on tomato,H (more than 50% control value)
same,Test H control value class,[2]; 250 ppm spray,L (50% or less control value)
same,Test F control value class,Phytophthora infestans; Late blight on tomato,L (50% or less control value)
CCn1c(-c2c(F)cccc2OC)c(CC(C)C)cc(Br)c1=O [compound 96],Test D control value class,[1]; Powdery mildew on barley,H (more than 50% control value)
same,Test C control value class,Alternaia brassicicola; [14],H (more than 50% control value)
same,Test A control value class,Magnaporthe grisea; Blast on rice,L (50% or less control value)
same,Test G control value class,Plasmopara viticola; 250 ppm spray,L (50% or less control value)
same,Test E control value class,Puccinia recondita; [15],H (more than 50% control value)
same,Test B control value class,Botrytis cinerea; Gray mold on tomato,H (more than 50% control value)
same,Test H control value class,[2]; 250 ppm spray,H (more than 50% control value)
same,Test F control value class,Phytophthora infestans; Late blight on tomato,L (50% or less control value)
CCn1c(-c2c(F)cc(F)cc2F)c(C(=O)C2CC2)cc(Cl)c1=O [compound 260],Test D control value,[1]; [3],H (more than 50% control value)
same,Test C control value,Alternaia brassicicola; [4],H (more than 50% control value)
same,Test A control value,Magnaporthe grisea; [5],H (more than 50% control value)
same,Test G control value,Plasmopara viticola; [6],L (50% or less control value)
same,Test E control value,Puccinia recondita; [7],H (more than 50% control value)
same,Test B control value,Botrytis cinerea; [8],H (more than 50% control value)
same,Test H control value,[2]; [9],H (more than 50% control value)
same,Test F control value,Phytophthora infestans; [10],H (more than 50% control value)
CCn1c(-c2ccc(OC)cc2)c(C(O)C(C)C)cc(Cl)c1=O (centres unmarked) [compound 246],Test D control value,[1]; [3],L (50% or less control value)
same,Test C control value,Alternaia brassicicola; [4],H (more than 50% control value)
same,Test A control value,Magnaporthe grisea; [5],L (50% or less control value)
same,Test G control value,Plasmopara viticola; [6],L (50% or less control value)
same,Test E control value,Puccinia recondita; [7],H (more than 50% control value)
same,Test B control value,Botrytis cinerea; [8],L (50% or less control value)
same,Test H control value,[2]; [9],L (50% or less control value)
same,Test F control value,Phytophthora infestans; [10],L (50% or less control value)
CCCc1cc(Cl)c(=O)n(C)c1-c1ccc(F)cc1Br [compound 414],Test D control value,[1]; [11],H (more than 50% control value)
same,Test C control value,Alternaia brassicicola; [11],H (more than 50% control value)
same,Test A control value,Magnaporthe grisea; [11],H (more than 50% control value)
same,Test G control value,Plasmopara viticola; [12],L (50% or less control value)
same,Test E control value,Puccinia recondita; [11],H (more than 50% control value)
same,Test B control value,Botrytis cinerea; [11],H (more than 50% control value)
same,Test H control value,[2]; [13],H (more than 50% control value)
same,Test F control value,Phytophthora infestans; [11],L (50% or less control value)
